ChEMBL document CHEMBL4665873, “Exploring the physicochemical and antiproliferative properties of biaryl-linked [13]-macrodilactones” (2020)

Test: Antiproliferative activity against mouse ASZ cells assessed as reduction in cell viability after 72 hrs by MTS/PMS assay
Assay type: functional

Going from `CN(C)c1cccc(-c2ccc(C3C/C=C/CCC(=O)OCCCOC3=O)cc2)c1` (stereo not drawn) to `O=C1CC/C=C/CC(c2ccc(-c3cccc(O)c3)cc2)C(=O)OCCCO1` (stereo not drawn), the GI50 falls from no less than 75 µM to 12.1 µM.

`O=C1CC/C=C/CC(c2ccc(-c3ccccc3)cc2)C(=O)OCCCO1` (stereo not drawn) and `O=C1CC/C=C/CC(c2ccc(-c3ccncc3)cc2)C(=O)OCCCO1` (stereo not drawn) cannot be ordered by GI50: no less than 100 µM for the first, no less than 75 µM for the second.

Compared with `Cc1noc(C)c1-c1ccc(C2C/C=C/CCC(=O)OCCCOC2=O)cc1` (stereo not drawn), `COc1cc(-c2ccc(C3C/C=C/CCC(=O)OCCCOC3=O)cc2)c(OC)nn1` (stereo not drawn) is lower in GI50: no less than 75 µM for the first, 19.7 µM for the second.

First: O=C1CC/C=C/CC(c2ccc(-c3cccnc3)cc2)C(=O)OCCCO1 (stereo not drawn)
Second: O=C1CC/C=C/CC(c2ccc(-c3cnn(Cc4ccccc4)c3)cc2)C(=O)OCCCO1 (stereo not drawn)
The GI50 of the first is lower: 40.9 µM for the first, no less than 100 µM for the second.
